First: CCc1cc(OC)c(OC)cc1Cc1cnc(N)nc1N
Second: COc1cc(OC)c(C(=O)CCl)cc1C
The melting point of the first is higher: 206 to 207 °C for the first, 166 to 167 °C for the second.

First: CCCc1c(CSc2nnc(SCCCCCCC(=O)O)s2)ccc(C(C)=O)c1O
Second: CCCCCCCCCCCCNC(=O)Nc1sc(C(=O)O)c(C)c1C(=O)OC(C)(C)C
The melting point of the first is lower: 63 to 68 °C for the first, 187 to 188 °C for the second.

First: CCc1nc2c(C)cc(C)nc2n1Cc1ccc2c(c1)CCc1ccccc1N2CC(=O)O
Second: Cc1ccc(F)cc1C(=O)Nc1ccc(C(=O)N2Cc3ccnn3Cc3ccccc32)c(Cl)c1
The melting point of the first is lower: 114 to 115 °C for the first, 137 to 140 °C for the second.

Compared with `Nn1cc(Cl)c(=O)[nH]c1=O`, `N#Cc1c(Cl)c2cc(Cl)cnc2[nH]c1=O` is higher in melting point: 224 to 225 °C for the first, 247 °C for the second.

First: COC(=O)C1=Cc2cc(-c3ccc(Cl)cc3)ccc2S(=O)(=O)CC1
Second: CC(C(=O)OCCO)n1c(-c2ccc(Cl)cc2)nc2cccnc21 (stereo unspecified)
The melting point of the first is higher: 168 to 170 °C for the first, 112 to 114 °C for the second.

Compared with `O=C(c1ccc(OCC2CC2)c2oc3ccccc3c12)[NH+]([O-])c1cccnc1` (stereo unspecified), `COC(=O)c1ccccc1-c1ccc(COc2cc(C)nc3cccnc23)cc1` is lower in melting point: 272 to 275 °C for the first, 132 to 134 °C for the second.

First: Fc1ccccc1N1CCN(c2ccc(Cl)nn2)CC1
Second: C1=C(c2ccc3c(c2)OCCO3)CCC(N2CCN(Cc3ccccc3)CC2)C1 (stereo unspecified)
The melting point of the first is higher: 148 °C for the first, 132 to 133 °C for the second.

Compared with `CC(C)(C)O[C@@H]1C[C@@H](CO)N(S(=O)(=O)c2ccc3ccccc3c2)C1`, `CC(C)(C)CNC(=O)Oc1ccccc1` is lower in melting point: 124 to 125 °C for the first, 77 to 78 °C for the second.

First: O=[N+]([O-])C=C1NCCCN1Cc1ccc(Cl)cc1
Second: O=[N+]([O-])C=C1SCCCN1Cc1cccnc1
The melting point of the first is higher: 172 to 174 °C for the first, 143 to 146 °C for the second.

First: CC(CCc1nnn[nH]1)Oc1cccc(OCc2ccc3ccccc3n2)c1 (stereo unspecified)
Second: CC(C)NS(=O)(=O)c1ccc(-c2ccc3nnn(Cc4ccc5ncccc5c4)c3n2)cc1
The melting point of the first is lower: 147 to 149 °C for the first, 154 to 156 °C for the second.

First: O=C(O)c1ccc(=O)n(CCCNC(=O)c2cccnc2)c1
Second: COc1ccc(C)cc1C(=O)NCCc1ccc(CC(=O)O)cc1
The melting point of the first is higher: 218 to 220 °C for the first, 148 to 150 °C for the second.

First: CC[C@H](Nc1nc(Nc2cccc(NS(C)(=O)=O)c2)nc2[nH]cnc12)c1ccccc1
Second: CCN/C(=C1\C(=O)c2ccccc2S1=O)c1ccccc1 (stereo unspecified)
The melting point of the first is lower: 138 to 141 °C for the first, 183 to 185 °C for the second.

Compared with `CN(C)c1cc(CO)cc(N(C)C)c1N1CCCCC1`, `Cc1c(NC(=O)c2ccc(-c3ccc(F)cc3)cc2)ccc2cc(CN3CCCCC3)cnc12` is higher in melting point: 90 to 92 °C for the first, 188 to 190 °C for the second.

Compared with `CC(C)(C)OC(=O)N[C@H](CCCNC(N)=N[N+](=O)[O-])C(=O)NCc1ccc(CNC(N)=O)cc1`, `CCCCNc1cc(C(=O)O)cc(S(=O)(=O)NCCCC)c1Sc1ccc(N)cc1` is higher in melting point: 172 °C for the first, 198 to 200 °C for the second.

First: COc1ccc(C(=O)N(C(=O)c2ccc(OC)cc2)c2nc3ccc(N4CCOCC4)cc3c(NCc3ccccc3)c2C#N)cc1
Second: Cc1ccc(OC(Cc2ccc(OCCNC(=O)c3ccc(-c4ccccn4)cc3)cc2)C(=O)O)cc1 (stereo unspecified)
The melting point of the first is higher: 157 °C for the first, 129 to 131 °C for the second.

First: COP(=O)(Cc1cc(CP(=O)(OC)OC)cc(CP(=O)(OC)OC)c1)OC
Second: COC(=O)c1ccc(CC#N)cc1S(=O)(=O)NC(=O)Nc1nc(OC)cc(OC)n1
The melting point of the first is lower: 106 °C for the first, 177 to 179 °C for the second.

First: O=C1NC(=O)C(Cc2ccc(N3CCC(NC[C@H](O)c4csc(C(F)(F)F)n4)CC3)cc2)S1 (stereo partly specified)
Second: CN(Cc1cccc(-c2ccc(CC3SC(=O)NC3=O)cc2)c1)C(=O)c1ccno1 (stereo unspecified)
The melting point of the first is lower: 108 to 113 °C for the first, 160 °C for the second.

Compared with `O=C(c1cc2cc([N+](=O)[O-])ccc2[nH]1)N1CC(CCl)c2c1cc([N+](=O)[O-])c1ccccc21` (stereo unspecified), `CCN(CC)CCN1C(=O)Nc2ccc([N+](=O)[O-])cc2C1c1ccccc1` (stereo unspecified) is lower in melting point: greater than 300 °C for the first, 161 to 163 °C for the second.

First: Cc1noc(NS(=O)(=O)c2cccc3nsnc23)c1Br
Second: C#CCOc1cccc(C)c1S(N)(=O)=O
The melting point of the first is higher: 177 to 179 °C for the first, 129 °C for the second.

First: CCCC=CCC(CC(=O)Nc1cc(Cc2n[nH]c(=O)c3ccccc23)ccc1F)C(=O)O (stereo unspecified)
Second: O=C(CNC(=O)c1cc([N+](=O)[O-])ccc1F)OCc1ccccc1
The melting point of the first is higher: 179 to 181 °C for the first, 56 to 58 °C for the second.

First: CN(C)CC=CC(=O)Nc1cc2c(Nc3cc(Cl)c(Cl)cc3F)ncnc2cc1OCCOCCOCCOCCF
Second: CC1(C)C=C(c2ccccn2)c2cc(Cl)c(Cl)cc2OC1
The melting point of the first is higher: 119 to 120 °C for the first, 98 °C for the second.

First: Cc1nn(C)c(Oc2ccccn2)c1C=O
Second: CC(=O)C1=Nc2cc3c(c(C)c2=C1C)N=c1ccccc1=3
The melting point of the first is lower: 56 to 57 °C for the first, 258 to 260 °C for the second.

First: CC1(C)OCC(N2CCC(Cc3ccccc3)CC2)O1 (stereo unspecified)
Second: CN(C)C(=O)C(c1ccccc1)(c1ccccc1)C1CCNC1 (stereo unspecified)
The melting point of the first is lower: 92 to 94 °C for the first, 159 to 160 °C for the second.

First: CCCCCCCCCCCCCCCNC(=O)OCC(CO)OC (stereo unspecified)
Second: CCCCCCCCCCCCCCCCCCCCCC(=O)Nc1ccn(C2OC(CO)C(O)C2O)c(=O)n1 (stereo unspecified)
The melting point of the first is lower: 42.5 to 43 °C for the first, 141 to 143 °C for the second.

First: CC(C)(C)OC(=O)c1ccc(NC2CCc3cc4nc(COC(=O)C(C)(C)C)[nH]c(=O)c4cc32)cc1 (racemic)
Second: CC(=O)OCc1cc(C(C)=O)ccc1OC(C)=O
The melting point of the first is higher: 231 °C for the first, 47 to 48 °C for the second.

First: Cc1ccc(S(=O)(=O)OCC2CCc3cc(Br)ccc3C2)cc1 (stereo unspecified)
Second: Cc1cc(C2(C3CC3)CC(c3ccc(Cl)cc3)=NO2)ccc1NC(=O)c1cccc(I)c1C(=O)NC(C)C (stereo unspecified)
The melting point of the first is lower: 87 to 89 °C for the first, 178 to 180 °C for the second.

First: COC(=O)COc1cc2c(c(Cl)c1C)C(=O)C1(CCCC1)C2=O
Second: COC(=O)c1c(C)cc(O)c(Cl)c1O
The melting point of the first is higher: 152 to 154 °C for the first, 122 to 125 °C for the second.

First: CN1C(=O)[C@H](NC(=O)c2ccccc2)N=C(c2ccccc2)c2ccccc21
Second: Cc1nc(-n2ccc(OCc3ccccc3)cc2=O)sc1C(=O)NCc1ccccc1
The melting point of the first is higher: 224 to 225 °C for the first, 219 to 220 °C for the second.

First: CCc1cc(-c2ccc(F)cc2)c(O)cc1OC(CC)Oc1cc(NC(=O)CCCC(=O)N2CCOCC2)ccc1CCC(=O)O (stereo unspecified)
Second: CCCCCCCCC(=O)OC(C)c1ccc(-c2ccc(OC)cc2)cc1 (single isomer, unassigned; (+))
The melting point of the first is higher: 78 to 80 °C for the first, 59 to 60 °C for the second.

First: CC(=O)N1CC(NC(=O)Nc2cccc(C)c2)C(=O)N(CC(=O)c2ccccc2C)c2ccccc21 (stereo unspecified)
Second: Cn1ncc(C(=O)N2CC(F)C2)c1C(=O)Nc1ccc2nc(-c3ccccc3)nn2c1
The melting point of the first is lower: 215 to 217 °C for the first, 243 °C for the second.

First: CS(=O)CCC(NS(=O)(=O)c1ccc2c(c1)Sc1ccccc1O2)C(=O)O (stereo unspecified)
Second: O=S(=O)(O)c1ccc(O)c(O)c1
The melting point of the first is lower: 160 to 170 °C for the first, 254 to 255 °C for the second.

Compared with `Cc1cc(C#N)ccc1N1CCOCC1`, `N#Cc1ccc(/C=C/C=C/C=O)c(F)c1` is higher in melting point: 85 to 86 °C for the first, 174 to 177 °C for the second.

First: CCOC1=NS(=O)(=O)N=C1N[C@@H]1c2cc(OC(F)(F)F)ccc2OC(C)(C)[C@H]1O
Second: CC1(C)NC(=O)N(c2ccc(I)c(C(F)(F)F)c2)C1=O
The melting point of the first is higher: 192 to 194 °C for the first, 164 to 165 °C for the second.

`NC(=O)N(O)CC1CC(c2ccco2)C1` (stereo unspecified) and `CCOC(=O)COc1ccc(C23CC4CC(CC(C4)C2)C3)cc1` cannot be ordered by melting point: 89 to 100 °C for the first, 89 to 90 °C for the second.

First: CCOC(=O)[C@H](C)N[P@@]1(=O)OC[C@H]2O[C@@H](n3cnc4c(OCC)nc(N)nc43)[C@](C)(F)[C@@H]2O1
Second: CCOC(=O)C1=C(N)NC(N)=C(C(=O)OCC)C1c1cccc(C(=O)OCC)c1
The melting point of the first is higher: 195 to 197 °C for the first, 191 °C for the second.

First: CC(=O)NC[C@H]1CN(c2ccc(N3CCC(n4nnc(N5CCN(C(C)=O)CC5)n4)CC3)c(F)c2)C(=O)O1
Second: C=CCN1C(=O)NCC1c1ccc(OC)c(OC2CC3CCC2C3)c1 (stereo unspecified)
The melting point of the first is higher: 216 to 218 °C for the first, 110 to 113 °C for the second.

Compared with `COc1ccc2cc(-c3cc4c(cc3N)OCO4)ccc2c1`, `NC(=O)CNC(=O)c1cc(-c2ccc(F)c3cc(Cc4cc(F)cc(Cl)c4)sc23)ccc1F` is higher in melting point: 130 to 132 °C for the first, 148 to 150 °C for the second.

Compared with `CC(C)Nc1nc2ccccn2c(=O)c1Br`, `CCOC(=O)Cc1c(C)nc2c3cccc(Cl)c3ccn12` is higher in melting point: 101 to 104 °C for the first, 137 to 138 °C for the second.

Compared with `CNc1cc(OC)ccc1[N+](=O)[O-]`, `CCOC(=O)C(=O)Nc1cc(C#N)c(C#N)cc1[N+](=O)[O-]` is higher in melting point: 107 to 110 °C for the first, 140 to 141 °C for the second.

Compared with `CC(=O)OCC1OC(n2cc(C3=C(n4ccnc4)C(=O)N(C)C3=O)c3cccnc32)C(OC(C)=O)C(OC(C)=O)C1OC(C)=O` (stereo unspecified), `O=C(CCn1c(=O)c(=O)[nH]c2cc(C(F)(F)F)c(-n3cccc3)cc21)NCc1ccccc1` is higher in melting point: 88 to 90 °C for the first, 234 to 235 °C for the second.

First: CC1CCCN1CCCN1CCN(CCCN2CCCC2C)C1=C(C#N)C#N (stereo unspecified)
Second: CC(CCC(=O)C(C)(C)O)C1CCC2C3=CC=C4CC(O)CCC4(C)C3CCC21C (stereo unspecified)
The melting point of the first is lower: 89 to 93 °C for the first, 150 to 152 °C for the second.

Compared with `OCCNCC(O)c1ccccc1` (stereo unspecified), `O=C1c2c(Cl)ccc(Cl)c2-c2nn(CCNCCO)c3ccc(NCCNCCO)c1c23` is higher in melting point: 96 to 98 °C for the first, 196 °C for the second.

Compared with `Fc1cccc(C2(N3CCC3)CCC3(CC2)NCCc2c3[nH]c3ccccc23)c1` (stereo unspecified), `Oc1ccc2c(c1)OCC(c1ccc(F)cc1)C2c1ccc(OCCN2CCCC2)cc1` (stereo unspecified) is lower in melting point: 186 to 188 °C for the first, 164 to 167 °C for the second.

Compared with `C[C@H]1CN(c2c(F)cc3c(=O)c(C(=O)O)cn(CCF)c3c2Cl)C[C@H]1N` (relative stereo), `O=C(O)CC1(c2ccc(Cl)c(Cl)c2)CCC(=O)NC1=O` (stereo unspecified) is lower in melting point: 234 to 236 °C for the first, 203 °C for the second.

First: CC1=NN(C)C(=O)C1(Cl)C(Cl)c1ccc(Cl)cc1Cl (stereo unspecified)
Second: N#CC(C(=O)C(F)(F)F)c1cccc(Cl)c1Cl (stereo unspecified)
The melting point of the first is higher: 113 to 115 °C for the first, 74 to 75 °C for the second.

First: CCCCC(N=O)C(C)(C)Cl (stereo unspecified)
Second: CCOC(=O)CC(C#N)(CC(=O)OCC)c1ccc(Cl)c(Cl)c1
The melting point of the first is higher: 84 to 85 °C for the first, 69 to 71 °C for the second.

Compared with `N#Cc1ccc(Cc2cccc3c2CCN(Cc2cncn2Cc2ccc(C#N)cc2)C3)cc1`, `COc1ccc(Nc2nc(-c3ccccc3)c(-c3nc4ccccc4c(=O)n3-c3ccc(Cl)cc3)s2)cc1` is higher in melting point: 195 to 196 °C for the first, 262 to 263 °C for the second.

First: O=C1CCCc2snc(Cl)c21
Second: O=C(Nc1cccc(S(=O)(=O)N2CCCC2)c1)c1cnn2c(C(F)(F)F)cc(-c3ccc(C(F)(F)F)cc3)nc12
The melting point of the first is lower: 84 to 85 °C for the first, 241 °C for the second.
